{
  "source": "patent US20110039793A1",
  "about": "“Application of ginsenoside Rb1 in preparing medicaments for treating dilated cardiomyopathy” (priority 2008, published 2011)",
  "test_system": "cTnT^R141W transgenic dilated cardiomyopathy mice model",
  "assay": "Cardiac gene expression, RT-PCR method",
  "assay_type": "in vivo",
  "settings": "cardiac tissue, long-term administration",
  "procedure": "Effects on some cardiac gene expression of the mice model with dilated cardiomyopathy after a long-term administration of ginsenoside Rb1 (RT-PCR method)\n1) Pulverize the tissue in liquid nitrogen, and then add 1 ml Trizol liquid into the 50-100 mg tissue;\n2) Place the grinded liquid at RT for 5 min, add 0.2 ml chloroform into the grinded liquid, tightly cap the centrifuge tube, and violently vortex the centrifuge tube for 15 sec;\n3) Remove 0.5 ml the upper transparent liquid into a new centrifuge tube, add 0.5 ml isopropanol, placed at RT for 10 min, and centrifugate at 4° C., 12000 g for 10 min;\n4) Remove the supernatant, add 1 ml 75% ethanol and centrifugate at 4° C., 7500 g for 5 min;\n5) Carefully remove the supernatant, then dried at RT for 5-10 min, and then dissolved in DEPC-treated water.\n2. RT-PCR (Reverse Transcription—Polymerase Chain Reaction)\nAdd the above mixture into the tube in step 1), then incubated at 42° C. for 2 min;\n3) Add 1 μl SuperScript, II RT at 42° C. for 50 min;\n4) Placed on ice for 15 min;\n5) Add 1 μl RNase H, then incubated at 37° C. for 20 min;\n6) PCR reaction system is shown as follow:\n7) General conditions of PCR are shown as follow. Pre-denaturation at 94° C. for […], and extension at 72° C. for […] And the annealing temperature, the annealing time, the primer sequences and the cyclic numbers are shown in Table 2.\nwherein, Gapdh serves as the loading control.",
  "data": [
    {"smiles": "CC(C)=CCC[C@](C)(O[C@@H]1O[C@H](CO[C@@H]2O[C@H](CO)[C@@H](O)[C@H](O)[C@H]2O)[C@@H](O)[C@H](O)[C@H]1O)[C@H]1CC[C@]2(C)[C@@H]1[C@H](O)C[C@@H]1[C@@]3(C)CC[C@H](O[C@@H]4O[C@H](CO)[C@@H](O)[C@H](O)[C@H]4O[C@@H]4O[C@H](CO)[C@@H](O)[C@H](O)[C@H]4O)C(C)(C)[C@@H]3CC[C@]12C", "note": "[Rb1, ginsenoside Rb1]", "values": [
      {"measurement": "expression of Cx40", "value": "increase"},
      {"measurement": "expression of E-cadherin", "value": "increase"},
      {"measurement": "expression of Itga8", "value": "decrease"},
      {"measurement": "expression of Itgbp", "value": "decrease"},
      {"measurement": "expression of P-cadherin", "value": "increase"},
      {"measurement": "expression of the fibroblast growth factor FGF", "setting": "FGF2, 7, 8, 10", "value": "improve"}
    ]}
  ]
}
